The source made the active and inactive calls.
Columns and labels:
[1] = Fluorescence-based cell-based high throughput dose response assay for inhibitors of the interaction of nucleotide-binding oligomerization domain containing 2 (NOD2) and the receptor-interacting serine-threonine kinase 2 (RIPK2).; format: functional; details: Homo sapiens
Fatty acid synthase [2] = molecular target: T1, Fatty acid synthase (Homo sapiens, UniProt P49327); assay: FAS thioesterase domain inhibitors, dose response, biochemical, endpoint fluorescence intensity, uHTS hits (AID 624327); format: functional;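 further: fluorescence from hydrolysis of an O-methyl fluorescein acyl ester substrate by the enzyme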
T1 sequence (P49327 whole entry, the tested form may be a part): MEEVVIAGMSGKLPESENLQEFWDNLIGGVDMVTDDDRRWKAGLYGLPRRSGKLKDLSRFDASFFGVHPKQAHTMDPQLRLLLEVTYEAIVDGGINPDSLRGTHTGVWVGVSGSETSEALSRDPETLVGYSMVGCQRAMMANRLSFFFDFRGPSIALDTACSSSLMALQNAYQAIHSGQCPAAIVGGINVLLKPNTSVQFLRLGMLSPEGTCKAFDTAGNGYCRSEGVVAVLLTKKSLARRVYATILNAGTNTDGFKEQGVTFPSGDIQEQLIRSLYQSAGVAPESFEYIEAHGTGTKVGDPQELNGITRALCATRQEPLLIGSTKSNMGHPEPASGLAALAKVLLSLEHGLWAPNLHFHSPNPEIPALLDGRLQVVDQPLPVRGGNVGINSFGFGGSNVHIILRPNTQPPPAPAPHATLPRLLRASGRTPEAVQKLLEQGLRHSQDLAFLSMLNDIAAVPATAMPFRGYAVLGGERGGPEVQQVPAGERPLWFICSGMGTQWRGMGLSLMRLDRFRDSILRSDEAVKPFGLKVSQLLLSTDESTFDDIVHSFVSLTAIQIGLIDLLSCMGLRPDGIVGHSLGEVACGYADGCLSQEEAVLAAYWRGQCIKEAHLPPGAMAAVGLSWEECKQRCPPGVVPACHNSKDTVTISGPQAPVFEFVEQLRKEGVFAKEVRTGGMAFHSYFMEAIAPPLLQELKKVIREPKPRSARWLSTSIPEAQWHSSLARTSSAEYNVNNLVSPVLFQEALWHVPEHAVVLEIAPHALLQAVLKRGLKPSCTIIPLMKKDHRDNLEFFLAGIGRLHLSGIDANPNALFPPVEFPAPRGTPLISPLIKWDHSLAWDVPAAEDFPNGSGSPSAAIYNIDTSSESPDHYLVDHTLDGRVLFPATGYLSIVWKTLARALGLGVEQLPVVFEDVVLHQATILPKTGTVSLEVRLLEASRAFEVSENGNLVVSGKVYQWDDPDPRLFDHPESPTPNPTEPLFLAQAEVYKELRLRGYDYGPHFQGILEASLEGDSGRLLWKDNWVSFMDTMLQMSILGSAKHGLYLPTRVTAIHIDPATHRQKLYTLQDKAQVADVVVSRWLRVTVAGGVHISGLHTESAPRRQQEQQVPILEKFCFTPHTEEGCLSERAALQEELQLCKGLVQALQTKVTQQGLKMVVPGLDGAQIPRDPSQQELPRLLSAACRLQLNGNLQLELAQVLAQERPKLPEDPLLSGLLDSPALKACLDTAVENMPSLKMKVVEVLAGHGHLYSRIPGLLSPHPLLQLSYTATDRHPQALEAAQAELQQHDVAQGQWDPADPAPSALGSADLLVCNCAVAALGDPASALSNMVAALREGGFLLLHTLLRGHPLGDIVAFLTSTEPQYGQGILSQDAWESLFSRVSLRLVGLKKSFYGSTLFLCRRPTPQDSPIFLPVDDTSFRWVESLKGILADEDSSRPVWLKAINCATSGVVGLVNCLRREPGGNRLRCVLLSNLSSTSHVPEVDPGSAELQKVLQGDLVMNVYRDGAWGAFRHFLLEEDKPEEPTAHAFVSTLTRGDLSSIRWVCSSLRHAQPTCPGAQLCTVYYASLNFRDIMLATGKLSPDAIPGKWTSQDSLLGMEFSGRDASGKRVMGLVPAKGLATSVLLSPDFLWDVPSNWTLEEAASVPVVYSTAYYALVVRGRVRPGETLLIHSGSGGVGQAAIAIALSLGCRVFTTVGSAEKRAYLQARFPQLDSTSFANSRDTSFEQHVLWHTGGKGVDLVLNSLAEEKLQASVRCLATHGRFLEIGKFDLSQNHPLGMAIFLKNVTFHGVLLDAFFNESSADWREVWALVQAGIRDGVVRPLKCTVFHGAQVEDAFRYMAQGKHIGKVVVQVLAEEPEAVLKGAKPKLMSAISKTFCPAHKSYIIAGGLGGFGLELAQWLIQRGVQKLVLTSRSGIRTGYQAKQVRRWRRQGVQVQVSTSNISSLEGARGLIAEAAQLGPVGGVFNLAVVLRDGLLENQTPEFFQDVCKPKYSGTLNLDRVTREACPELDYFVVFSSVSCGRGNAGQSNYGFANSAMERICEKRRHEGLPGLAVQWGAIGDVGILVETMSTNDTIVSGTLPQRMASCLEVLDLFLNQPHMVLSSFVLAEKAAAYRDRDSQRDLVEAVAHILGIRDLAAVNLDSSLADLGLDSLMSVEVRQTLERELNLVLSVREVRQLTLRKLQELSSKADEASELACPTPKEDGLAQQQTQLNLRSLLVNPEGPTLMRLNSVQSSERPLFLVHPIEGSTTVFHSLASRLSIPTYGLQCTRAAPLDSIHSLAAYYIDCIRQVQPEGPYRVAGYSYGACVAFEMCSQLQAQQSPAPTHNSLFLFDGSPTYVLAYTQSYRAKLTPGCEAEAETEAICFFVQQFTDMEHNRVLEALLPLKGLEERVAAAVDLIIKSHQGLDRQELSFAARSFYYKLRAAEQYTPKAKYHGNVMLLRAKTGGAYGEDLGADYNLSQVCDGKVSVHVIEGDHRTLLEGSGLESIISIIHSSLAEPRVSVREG

Beta Lactamase = Beta Lactamase (Pseudomonas aeruginosa, UniProt Q932Y6); assay: beta-lactamase reporter inhibitor potency, dose response, artefact control for NOD2-RIPK2 interaction inhibitor project, BLA reporter cells, FRET fluorescence (AID 651552); format: functional, cell-based
Beta Lactamase, sequence (Q932Y6 whole entry, the tested form may be a part): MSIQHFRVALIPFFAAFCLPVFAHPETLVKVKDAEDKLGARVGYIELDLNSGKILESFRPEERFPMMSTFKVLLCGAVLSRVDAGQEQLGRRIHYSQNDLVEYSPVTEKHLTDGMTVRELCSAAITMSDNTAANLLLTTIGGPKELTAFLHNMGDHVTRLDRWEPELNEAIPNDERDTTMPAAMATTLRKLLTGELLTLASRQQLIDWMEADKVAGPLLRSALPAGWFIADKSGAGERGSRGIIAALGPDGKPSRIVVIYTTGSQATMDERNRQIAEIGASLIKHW

Fatty acid synthase [3] = molecular target: T1, Fatty acid synthase; assay: FAS thioesterase domain inhibitors, dose response, biochemical, kinetic fluorescence intensity (AID 624326); format: functional;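 further: rate of fluorescence rise from hydrolysis of a fluorogenic O-methyl fluorescein ester substrate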
[4] = molecular target: T2, Replicative DNA helicase DnaB (Mycobacterium tuberculosis, UniProt P9WMR3); assay: DnaB intein splicing inhibitors, dose response, biochemical, cell-free fluorescence (AID 449749); format: functional
T2 sequence (P9WMR3 whole entry): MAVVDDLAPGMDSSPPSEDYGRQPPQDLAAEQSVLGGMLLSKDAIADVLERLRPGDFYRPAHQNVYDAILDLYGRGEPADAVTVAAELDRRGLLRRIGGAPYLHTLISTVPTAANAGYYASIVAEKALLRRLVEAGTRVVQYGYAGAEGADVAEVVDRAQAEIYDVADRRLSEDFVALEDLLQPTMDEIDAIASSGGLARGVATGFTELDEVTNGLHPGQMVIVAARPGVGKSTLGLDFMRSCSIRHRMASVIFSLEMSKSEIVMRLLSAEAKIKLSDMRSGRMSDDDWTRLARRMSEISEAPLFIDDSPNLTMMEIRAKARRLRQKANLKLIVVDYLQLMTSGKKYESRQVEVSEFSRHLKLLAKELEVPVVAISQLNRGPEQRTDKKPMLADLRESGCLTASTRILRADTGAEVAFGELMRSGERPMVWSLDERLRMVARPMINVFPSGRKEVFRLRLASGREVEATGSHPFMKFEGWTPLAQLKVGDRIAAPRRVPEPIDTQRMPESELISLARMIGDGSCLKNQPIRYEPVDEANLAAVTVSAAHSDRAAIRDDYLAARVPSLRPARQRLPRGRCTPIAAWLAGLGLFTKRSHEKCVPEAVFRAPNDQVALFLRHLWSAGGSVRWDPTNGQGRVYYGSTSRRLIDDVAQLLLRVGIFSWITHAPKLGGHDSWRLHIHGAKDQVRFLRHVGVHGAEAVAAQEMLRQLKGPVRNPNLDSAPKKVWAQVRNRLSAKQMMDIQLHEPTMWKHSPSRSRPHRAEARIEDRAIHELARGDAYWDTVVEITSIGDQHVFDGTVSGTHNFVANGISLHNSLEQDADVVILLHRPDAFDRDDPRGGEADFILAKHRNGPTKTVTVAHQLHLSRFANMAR

[5] = RKO cell viability reduction, dose response, CellTiter-Glo luminescence (AID 1117322); format: functional
[6] = molecular target: Heat shock protein HSP 90-alpha (Homo sapiens, UniProt P07900); format: functional, organism-based
[7] = CellTiter-Glo luminescent dose response of DLD-1 viability loss (AID 1117352); format: functional
[8] = cytotoxicity toward Colo320 cells – cell-based, CellTiter-Glo luminescence, IC50, dose response (AID 1117334); format: functional; details: COLO 320
Protein RecA = molecular target: T3, Protein RecA (Mycobacterium tuberculosis, UniProt P9WHJ3); assay: Fluorescence Cell-Free Homogeneous Dose Retest to Identify Inhibitors of RecA-Intein Splicing Activity. [Related pubchem assays (depositor defined):AID2097, AID2223, AID489010, AID492950]; format: functional
T3 sequence (P9WHJ3 whole entry): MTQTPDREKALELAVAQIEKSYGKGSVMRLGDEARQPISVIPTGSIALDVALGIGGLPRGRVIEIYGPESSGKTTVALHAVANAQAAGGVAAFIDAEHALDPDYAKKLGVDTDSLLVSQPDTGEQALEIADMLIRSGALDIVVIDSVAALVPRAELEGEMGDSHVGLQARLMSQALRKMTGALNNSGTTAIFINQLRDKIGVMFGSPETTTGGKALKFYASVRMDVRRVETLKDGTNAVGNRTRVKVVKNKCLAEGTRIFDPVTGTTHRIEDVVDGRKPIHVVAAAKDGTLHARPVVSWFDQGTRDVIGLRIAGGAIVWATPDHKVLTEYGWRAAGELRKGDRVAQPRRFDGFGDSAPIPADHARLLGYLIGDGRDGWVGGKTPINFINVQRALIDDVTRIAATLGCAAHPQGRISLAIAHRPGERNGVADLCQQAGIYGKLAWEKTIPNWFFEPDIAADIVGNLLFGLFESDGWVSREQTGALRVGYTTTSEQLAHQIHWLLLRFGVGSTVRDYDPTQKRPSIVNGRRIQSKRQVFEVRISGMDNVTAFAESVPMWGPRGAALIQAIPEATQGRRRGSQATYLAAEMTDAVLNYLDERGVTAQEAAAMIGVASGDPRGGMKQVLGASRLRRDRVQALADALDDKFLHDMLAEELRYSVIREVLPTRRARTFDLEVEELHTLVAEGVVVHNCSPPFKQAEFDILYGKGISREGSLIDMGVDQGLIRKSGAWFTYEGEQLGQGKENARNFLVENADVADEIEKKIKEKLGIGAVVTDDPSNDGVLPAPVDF

[9] = cytotoxicity toward DRD oncogenic fibroblasts, dose response, cell-based, non-viral oncogenic, luminescence (AID 1934); format: functional; details: Homo sapiens
[10] = NIH-3T3 fibroblast cytotoxicity, dose response, cytotoxicity control, cell-based, fluorescence, Alamar Blue, secondary assay (AID 2327); format: functional;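 further: NIH-3T3 mouse fibroblasts cultured with fluconazole at 8 µg/mL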
[11] = Concentration-dependent survival of SW480 colon cancer line, luminescence detection with CellTiter-Glo, half-maximal inhibitory concentration (AID 1117338); format: functional
BJ [12] = assay: cytotoxicity toward BJ-TERT fibroblasts, dose response, cell-based, RAS-independent, luminescence (AID 1933); format: functional; details: Homo sapiens
[13] = THP-1 cell cytotoxicity, dose response, cytotoxicity control for Vif-APOBEC3G degradation inhibitor project, THP-1 cells (AID 1117359); format: functional; details: Human immunodeficiency virus 1, THP-1
BJ [14] = assay: cytotoxicity toward BJ-TERT-LT-ST fibroblasts, dose response, cell-based, RAS-independent, luminescence (AID 1935); format: functional; details: Homo sapiens;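 further: BJ fibroblasts immortalized with TERT plus LT and ST oncogenes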
[15] = MC4R antagonists, dose response, counter-screen for LGR2 antagonist project, cell-based, plate reader, cherry pick (AID 743444); format: functional;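 further: transfected HEK 293 cells stimulated with alpha-MSH peptide; potency of inhibitors of the alpha-MSH evoked signal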
[16] = cytotoxicity toward HT-29 cells – cell-based, CellTiter-Glo luminescence, IC50, dose response (AID 1117330); format: functional
Nonstructural protein 1 = Nonstructural protein 1 (Influenza A virus, UniProt Q194T2); format: functional, Influenza A virus (A/California/07/2009(H1N1))
Nonstructural protein 1, sequence (Q194T2 whole entry): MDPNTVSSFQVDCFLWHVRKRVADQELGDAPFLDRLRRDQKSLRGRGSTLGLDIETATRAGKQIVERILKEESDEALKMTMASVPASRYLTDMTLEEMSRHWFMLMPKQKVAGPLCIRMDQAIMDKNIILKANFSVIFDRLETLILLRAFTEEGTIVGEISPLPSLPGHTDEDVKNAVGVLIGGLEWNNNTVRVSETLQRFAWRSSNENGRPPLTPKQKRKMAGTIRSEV

[17] = cytotoxicity toward HCT116 cells – cell-based, CellTiter-Glo luminescence, IC50, dose response (AID 1117332); format: functional; details: HCT-116
[18] = HeLa 4N DNA content increase, dose response, cell-based, IC50 (AID 1117351); format: functional
[19] = SNU-C1 cell viability reduction, dose response, CellTiter-Glo luminescence (AID 1117323); format: functional, cell-based
[20] = HCT116 cell viability decrease, GSK3B pretreatment – CellTiter-Glo, IC50, dose response (AID 1117339); format: functional; details: HCT-116
[21] = A549 cell cytotoxicity, dose response, cytotoxicity control, plate reader, cherry-pick, antagonist series (AID 743412); format: functional, cell-based
Caspase-6 = molecular target: T4, Caspase-6 (Homo sapiens, UniProt P55212); assay: human caspase-6 inhibitors, dose response, biochemical, VEID-R110 fluorescence, cherry-pick (AID 720632)
T4 sequence (P55212 whole entry): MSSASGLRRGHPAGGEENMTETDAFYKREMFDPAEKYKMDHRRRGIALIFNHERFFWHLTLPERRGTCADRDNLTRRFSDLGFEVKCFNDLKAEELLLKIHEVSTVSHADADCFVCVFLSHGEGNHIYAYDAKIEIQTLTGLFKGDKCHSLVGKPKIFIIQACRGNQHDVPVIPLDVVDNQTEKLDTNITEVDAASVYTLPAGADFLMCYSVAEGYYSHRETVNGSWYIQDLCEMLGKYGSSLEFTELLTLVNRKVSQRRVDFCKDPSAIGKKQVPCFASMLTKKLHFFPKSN

[22] = HepG2 cell cytotoxicity, dose response, cytotoxicity control, plate reader, cherry-pick, antagonist series (AID 743416); format: functional, cell-based
BJ [23] = assay: cells; format: functional, cell-based; details: Homo sapiens
[24] = molecular target: Photoreceptor-specific nuclear receptor (Homo sapiens, UniProt Q9Y5X4); format: functional, cell-based;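 further: CHO-S cells with Gal4-NCOR and VP16-NR2E3 two-hybrid luciferase reporter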
Photoreceptor-specific nuclear receptor, sequence (Q9Y5X4 whole entry, the tested form may be a part): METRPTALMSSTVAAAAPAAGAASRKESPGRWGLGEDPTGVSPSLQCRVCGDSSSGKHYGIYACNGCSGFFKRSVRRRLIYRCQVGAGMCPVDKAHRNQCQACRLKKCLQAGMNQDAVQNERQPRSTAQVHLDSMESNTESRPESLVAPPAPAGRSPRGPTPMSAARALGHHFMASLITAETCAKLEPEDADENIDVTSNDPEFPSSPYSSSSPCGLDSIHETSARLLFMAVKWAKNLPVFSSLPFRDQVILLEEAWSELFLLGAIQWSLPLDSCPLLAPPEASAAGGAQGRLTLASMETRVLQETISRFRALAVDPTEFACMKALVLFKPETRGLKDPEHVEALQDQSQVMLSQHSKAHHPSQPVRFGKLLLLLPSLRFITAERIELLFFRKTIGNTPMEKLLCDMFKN

[25] = LGR2 antagonists, dose response, cell-based, HEK293, CRE-luciferase reporter, cherry pick, set 2 (AID 743343); format: functional;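 further: transfected cells were stimulated with diluted bursicon conditioned medium after compound addition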
[26] = HEK293 cell cytotoxicity, dose response, cytotoxicity control, plate reader, cherry-picked samples (AID 743446); format: functional, cell-based
[27] = C. albicans growth with fluconazole, confirmation, fluorescence, retest (AID 2467); format: functional, cell-based
[28] = HeLa 2N DNA content increase, dose response, cell-based, IC50 (AID 1117349); format: functional

## CCOC(=O)[C@]12Cc3c(cc(OC)c(OC)c3OC)[C@H]1N(C1CCCCC1)C(=O)c1ccccc12
[1]
  IC50: 2.03 µM (active)
Fatty acid synthase [2]
  IC50: 8.89 µM (active)
Beta Lactamase
  IC50: 25.5 µM (inactive)
Fatty acid synthase [3]
  IC50: 7.77 µM (active)

## O=[N+]([O-])c1ccc(O)c2ncccc12 [NITROXOLINE]
[4]
  AC50: 9.95 µM (active)
[5]
  IC50: 0.71 µM (active)
[6]
  AC50: 0.996 µM (active)
[7]
  IC50: 1.38 µM (active)
[8]
  IC50: 0.684 µM (active)
Protein RecA
  EC50: 14.4 µM (active)
[9]
  EC50: 16.6 µM (active)
[10]
  EC50: 9.52 µM (inconclusive)
[11]
  IC50: 0.605 µM (active)
BJ [12]
  EC50: 9.44 µM (active)
[13]
  CC50: 5.53 µM (active)
BJ [14]
  EC50: 16.7 µM (inconclusive)
[15]
  AC50: 48.7 µM (active)
[16]
  IC50: > 20 µM (inactive)
Nonstructural protein 1
  IC50: 4.72 µM (active)
[17]
  IC50: 0.921 µM (active)
[18]
  IC50: > 10 µM (inactive)
[19]
  IC50: > 20 µM (inactive)
[20]
  IC50: 0.375 µM (active)
[21]
  AC50: 12.1 µM (active)
Caspase-6
  AC50: 14.9 µM (active)
[22]
  AC50: 9.7 µM (active)
BJ [23]
  EC50: 28.8 µM (active)
[24]
  IC50: 8.96 µM (active)
[25]
  AC50: 54.9 µM (active)
[26]
  AC50: 11.5 µM (active)
[27]
  EC50: 0.161 µM (active)
[28]
  IC50: 1.7 µM (active)
